Experimental data from the NIST ThermoML archive (doi:10.1021/acs.jced.6b00202).

Details: Liquid

COC(C)(C)C [2-methoxy-2-methylpropane]
Brillouin light scattering
Details | speed of sound [m/s]
303.11 K, 7000 kPa | 1078.5
303.12 K, 10000 kPa | 1093.4
303.13 K, 1000 kPa | 1023.2
303.15 K, 2500 kPa | 1035.3
303.15 K, 8500 kPa | 1086.9
303.2 K, 4000 kPa | 1045.4
303.2 K, 5500 kPa | 1058.1
308.06 K, 2500 kPa | 1018.4
308.11 K, 10000 kPa | 1080
308.12 K, 4000 kPa | 1025.3
308.13 K, 5500 kPa | 1037.2
308.13 K, 8500 kPa | 1064.6
308.23 K, 1000 kPa | 1003.3
308.24 K, 7000 kPa | 1052.5
313.09 K, 1000 kPa | 975
313.1 K, 2500 kPa | 990.3
313.13 K, 7000 kPa | 1034.7
313.15 K, 4000 kPa | 1007
313.17 K, 10000 kPa | 1051.6
313.2 K, 5500 kPa | 1018.3
313.24 K, 8500 kPa | 1049
318.06 K, 8500 kPa | 1020.1
318.07 K, 1000 kPa | 959.3
318.18 K, 7000 kPa | 1012.5
318.22 K, 4000 kPa | 985.3
318.23 K, 2500 kPa | 971.4
318.24 K, 5500 kPa | 996.7
318.25 K, 10000 kPa | 1040
323.07 K, 10000 kPa | 1016.8
323.12 K, 8500 kPa | 1006.1
323.14 K, 7000 kPa | 987.9
323.15 K, 1000 kPa | 932.5
323.18 K, 2500 kPa | 947.7
323.21 K, 5500 kPa | 982.2
323.25 K, 4000 kPa | 964.9
328.06 K, 7000 kPa | 971.9
328.08 K, 1000 kPa | 917
328.11 K, 2500 kPa | 926.2
328.13 K, 8500 kPa | 984.6
328.14 K, 5500 kPa | 963.3
328.16 K, 4000 kPa | 942.5
328.19 K, 10000 kPa | 991.7
333.08 K, 1000 kPa | 893.5
333.08 K, 2500 kPa | 904.6
333.12 K, 4000 kPa | 920.6
333.18 K, 10000 kPa | 978.4
333.2 K, 5500 kPa | 941.5
333.21 K, 7000 kPa | 949.1
333.22 K, 8500 kPa | 967.6
338.09 K, 1000 kPa | 867.8
338.11 K, 7000 kPa | 931.3
338.11 K, 8500 kPa | 941
338.16 K, 5500 kPa | 922.2
338.17 K, 10000 kPa | 954.4
338.22 K, 4000 kPa | 898.7
338.23 K, 2500 kPa | 884.4
343.15 K, 7000 kPa | 911.8
343.18 K, 8500 kPa | 926.4
343.19 K, 4000 kPa | 883.2
343.19 K, 5500 kPa | 892.8
343.2 K, 1000 kPa | 845.4
343.22 K, 2500 kPa | 868.6

Brillouin Light Scattering
Details | speed of sound [m/s]
303.19 K | 1024.7
308.16 K | 988.6
313.08 K | 960.4
318.19 K | 942.7
323.07 K | 912.4
328.21 K | 904.7
333.13 K | 876.8
338.07 K | 855.1
343.12 K | 826.3
